The values below come from paper PMC10571957, “αV-Integrin-Dependent Inhibition of Glioblastoma Cell Migration, Invasion and Vasculogenic Mimicry by the uPAcyclin Decapeptide” (Cancers, 2023).

Experiment [1] deals with U138-MG cells. The experiment can be described thus: Boyden chamber Matrigel invasion, U138-MG. The class given is cell-based, human. The conditions noted are these: for invasion, % of basal, average 2 expts: mean of 2 expts; for invasion, % of basal, average expt 1: mean of expt 1; for invasion, % of basal, average expt 2: mean of expt 2; for invasion, % of basal, T-test list: single replicates of both expts. The protocol:
The migration and invasion assays were performed using Boyden chambers and 8 µm pore size PVP-free filters coated with 50 µg/mL of collagen type VI (Sigma), as previously described. For the invasion assays, collagen-coated filters were further coated with 50 µg/mL Matrigel^TM (Sigma). Briefly, 11 × 10^4 U87-MG, 4 × 10^4 U251-MG, or 4 × 10^4 U138-MG/sample were pre-treated for 40 min at 37 °C with the indicated effectors. Then, the cells were allowed to migrate for 3 h or to invade for 5 h at 37 °C toward 5% FBS in DMEM/0.1% BSA. At the end of both assays, the cells on the lower filter surface were fixed, stained with haematoxylin, and counted under an optical microscope (Zeiss Axiophot, Carl Zeiss, Milan, Italy) at 20× magnification. The migration and invasion experiments were conducted in triplicate for U87-MG and in duplicate for U251-MG and U138-MG. The migrated or invaded cells were reported as percentage of basal migration or invasion in the presence of DMEM/0.1% BSA, taken as 100%, and analyzed as reported in Section 2.11.
Figure 4 Effect of uPAcyclin on matrix invasion of U87-MG, U251-MG, and U138-MG GBM cells. Quantitative analysis of U87-MG (A), U251-MG (B), and U138-MG (C) invasion. A total of 11 × 10^4 U87-MG or […] U251-MG or U138-MG/sample were pre-treated for 40 min at 37 °C with uPAcyclin (100 nM, 1 µM), anti-αV polyclonal (anti-αV-Pclonal) or monoclonal (anti-αV MoAb) antibody, or anti-actin polyclonal antibody (anti-actin), and then assayed in Boyden chambers at 37 °C, either for basal (BSA) or FBS-dependent invasion (5% FBS) for 5 h at 37 °C. Data are expressed as in the legend to Figure 3. Results are expressed as percentages with respect to the basal invasion, considered as 100% (* p-value < 0.05; ** p-value < 0.005; *** p-value < 0.001).

In experiment [2] the test system is C6 cells. In words: Wound healing assay, C6. It counts as cell-based, rat. The protocol: The wound healing assay or scratch test was performed as previously reported. Briefly, 6 × 10^3 U87-MG cells were seeded in multiwell-12 plates containing culture inserts for live cell analysis (Ibidi, Gmbh, Martinsried, Germany) and grown to confluence in DMEM/10% FBS for 24 h. After removing the inserts, the cells were pre-treated for 40 min at 37 °C with uPAcyclin or diluents at the indicated concentrations, and then incubated in DMEM/3% FBS for 24 h. The images were taken using the Inverted Microscope Leica DMI6000 DFC 402 (Leica Microsystems, Milan, Italy). A total of 10 × 10^4 C6 cells were grown to confluence in 12-well plates, in the presence of DMEM/10% FBS. […] To quantitate cell migration, a rectangle covering the wound edges is drawn on the T0 image and is further applied to the single photograms of each sample. The average margin distance is measured at three points and the results are expressed as percentage wound width of the T0 distance, taken as 100%.
Figure 5 Wound healing assay of U87-MG and C6 cells, in the presence of uPAcyclin. […] (C) For both U87-MG and C6, the wound width at time 0 is taken as 100% and the wound width at T24 or T16 is calculated as relative to that (* p-value < 0.05; ** p-value < 0.005; *** p-value < 0.001).

Where [3] appears, read: 100 nM, 5% FBS, 5 h, expt 1, duplicates.
[4] abbreviates: 100 nM, 5% FBS, 5 h, expt 2, duplicates.
The mark [5] stands for this setting: 1 µM, 5% FBS, 5 h, expt 1, duplicates.
Setting [6] is: 1 µM, 5% FBS, 5 h, expt 2, duplicates.

“And” between values parts separate entries of the source, which are not always exact repeats. Equal values may be shown once.

Regarding “Ac-K^1P[ESPPEELK^10]-NH2 (sidechain bridge or staple) [uPAcyclin]”, the reduction in invasion in experiment [1] (100 nM, U138-MG, 5% FBS, 5 h) is 50–60%. Besides, the invaded cell number/field in experiment [1] (setting [3]) was 10 cell number/field and 8 cell number/field; in experiment [1] (setting [4]), 9 cell number/field and 8 cell number/field; in experiment [1] (setting [5]), 7 cell number/field and 6 cell number/field; in experiment [1] (setting [6]) it was 6 cell number/field and 5 cell number/field. In addition, the “invasion, % of basal” value in experiment [1] (setting [3]) was 143% and 114%; in experiment [1] (setting [4]), 150% and 133%; in experiment [1] (setting [5]), 100% and 86%; in experiment [1] (setting [6]), 100% and 83%. The “invasion, % of basal, average 2 expts” value in experiment [1] (100 nM, 5% FBS, 5 h) amounted to 135%; in experiment [1] (1 µM, 5% FBS, 5 h) it was 92%. The “invasion, % of basal, average expt 1” value in experiment [1] (100 nM, 5% FBS, 5 h) is 129%; in experiment [1] (1 µM, 5% FBS, 5 h) it was 93%. In addition, the “invasion, % of basal, average expt 2” value in experiment [1] (100 nM, 5% FBS, 5 h) came to 142%; in experiment [1] (1 µM, 5% FBS, 5 h), 92%. The “invasion, % of basal, T-test list” value in experiment [1] (100 nM) was 143 and 114 and 150 and 133; in experiment [1] (1 µM) it was 100 and 86 and 83. Moreover, the “invasion, in words” value in experiment [1] (1 µM, U138-MG, 5% FBS, 5 h) is “reduced invasion to basal levels”. In addition, the “wound closure, in words” value in experiment [2] (10 pM or 100 nM, C6, 16 h) is “dose-dependent inhibition of wound closure”. Further, the “reduction of wound healing rate closure” value in experiment [2] (C6, abstract) amounted to 50%.
